According to patent publication US6737383B1, “Herbicidal oxadiazolidines” (priority 1999, dated 2004):

How the values were obtained:
surinam grass = assay: Test B pre/postemergence surinam grass; format: in vivo, Brachiaria decumbens
How it was run: (§1)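 Test chemicals in a non-phytotoxic solvent mixture with surfactant were sprayed preemergence onto planted seeds and postemergence onto plants 2 to 18 cm tall (1- to 4-leaf stage). After twelve to sixteen days in a greenhouse, injury was visually rated against untreated controls from 0 (no effect) to 10 (complete control).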

cocklebur = assay: Test B pre/postemergence cocklebur; format: in vivo, Xanthium strumarium
How it was run: as §1

corn = assay: Test B pre/postemergence corn; format: in vivo, Zea mays
How it was run: as §1

crabgrass = assay: Test B pre/postemergence crabgrass; format: in vivo, Digitaria sanguinalis
How it was run: as §1

giant foxtail = assay: Test B pre/postemergence giant foxtail; format: in vivo, Setaria faberii
How it was run: as §1

morningglory = assay: Test B pre/postemergence morningglory; format: in vivo, Ipomoea hederacea; conditions: for Plant response rating, Morningglory: scale of 0 to 10 where 0 is no effect and 10 is complete control
How it was run: as §1

pigweed = assay: Test B pre/postemergence pigweed; format: in vivo, Amaranthus retroflexus; conditions: for Plant response rating, Redroot pigweed: scale of 0 to 10 where 0 is no effect and 10 is complete control
How it was run: as §1

rape = assay: Test B pre/postemergence rape; format: in vivo, Brassica napus; conditions: for Plant response rating, Rape: scale of 0 to 10 where 0 is no effect and 10 is complete control
How it was run: as §1

sugar beet = assay: Test B pre/postemergence sugar beet; format: in vivo, Beta vulgaris; conditions: for Plant response rating, Sugarbeets: scale of 0 to 10 where 0 is no effect and 10 is complete control
How it was run: as §1

wheat = assay: Test B pre/postemergence wheat; format: in vivo, Triticum aestivum; conditions: for Plant response rating, Wheat: scale of 0 to 10 where 0 is no effect and 10 is complete control
How it was run: as §1

wild oat = assay: Test B pre/postemergence wild oat; format: in vivo, Avena fatua; conditions: for Plant response rating, Wild oats: scale of 0 to 10 where 0 is no effect and 10 is complete control
How it was run: as §1

purple nutsedge = assay: Test B pre/postemergence purple nutsedge; format: in vivo, Cyperus rotundus; conditions: for Plant response rating, Nutsedge: scale of 0 to 10 where 0 is no effect and 10 is complete control
How it was run: as §1

rice = assay: Test B flood test rice; format: in vivo, Oryza sativa
How it was run: (§2)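 Plants were grown to the 2-leaf stage before treatment with test chemical, then held in a greenhouse for twelve to sixteen days. Injury was visually rated against untreated controls on a 0–10 scale, where 0 is no effect and 10 is complete control.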

smallflower flatsedge = assay: Test B flood test smallflower flatsedge; format: in vivo, Cyperus difformis
How it was run: as §2

duck salad = assay: Test B flood test duck salad; format: in vivo, Heteranthera limosa
How it was run: as §2

bamyardgrass = assay: Test B flood test barnyardgrass; format: in vivo, Echinochloa crus-galli
How it was run: as §2

[1] = Postemergence, Rate 500 g/ha, scale of 0 to 10 where 0 is no effect and 10 is complete control
[2] = Preemergence, Rate 62 g/ha, scale of 0 to 10 where 0 is no effect and 10 is complete control
[3] = Preemergence, Rate 125 g/ha, scale of 0 to 10 where 0 is no effect and 10 is complete control
[4] = Preemergence, Rate 250 g/ha, scale 0 to 10, 0 is no effect, 10 is complete control
[5] = Preemergence, Rate 500 g/ha, scale 0 to 10, 0 is no effect, 10 is complete control
[6] = Rate 62 g/ha, Postemergence, scale 0 to 10 (0 no effect, 10 complete control)
[7] = Rate 125 g/ha, Postemergence, scale 0 to 10, 0 is no effect, 10 is complete control
[8] = Postemergence, Rate 250 g/ha, scale 0 to 10
[9] = Rate 62 g/ha, flood test species, Pre-emergence, visual evaluation after twelve to sixteen days
[10] = Rate 125 g/ha, under heading Pre-emergence, flood test species, visual evaluation after twelve to sixteen days
[11] = Rate 250 g/ha, Pre-emergence (flood test species), scale 0 to 10, 0 is no effect, 10 is complete control
[12] = Rate 500 g/ha, Pre-emergence, flood test species, scale 0 to 10 (0 no effect, 10 complete control)

CC(C)N(C(=O)n1oc(=O)n(CO)c1=O)c1ccc(F)cc1 [Compound 470]
0: B. signalgrass plant response rating (surinam grass; Postemergence, Rate 250 g/ha, scale 0 to 10, 0 no effect, 10 complete control) | B. signalgrass plant response rating (surinam grass; [1]) | Plant response rating, B. signalgrass (surinam grass; [2]) | Plant response rating, B. signalgrass (surinam grass; [3]) | B. signalgrass plant response rating (surinam grass; [6]) | B. signalgrass plant response rating (surinam grass; [7]) | Cocklebur plant response rating (cocklebur; [8]) | Cocklebur plant response rating (cocklebur; [1]) | Plant response rating, Cocklebur (cocklebur; [2]) | Plant response rating, Cocklebur (cocklebur; [3]) | Cocklebur plant response rating (cocklebur; [4]) | Cocklebur plant response rating (cocklebur; [5]) | Cocklebur plant response rating (cocklebur; [6]) | Cocklebur plant response rating (cocklebur; [7]) | Corn plant response rating (corn; [8]) | Corn plant response rating (corn; [1]) | Plant response rating, Corn (corn; [2]) | Plant response rating, Corn (corn; [3]) | Corn plant response rating (corn; [4]) | Corn plant response rating (corn; [5]) | Corn plant response rating (corn; [6]) | Corn plant response rating (corn; [7]) | Crabgrass plant response rating (crabgrass; [8]) | Crabgrass plant response rating (crabgrass; [1]) | Crabgrass plant response rating (crabgrass; [6]) | Crabgrass plant response rating (crabgrass; [7]) | Giant foxtail plant response rating (giant foxtail; [8]) | Giant foxtail plant response rating (giant foxtail; [1]) | Plant response rating, Giant foxtail (giant foxtail; [2]) | Plant response rating, Giant foxtail (giant foxtail; [3]) | Giant foxtail plant response rating (giant foxtail; [4]) | Giant foxtail plant response rating (giant foxtail; [6]) | Giant foxtail plant response rating (giant foxtail; [7]) | Morningglory plant response rating (morningglory; [8]) | Plant response rating, Morningglory (morningglory; Preemergence, Rate 62 g/ha) | Plant response rating, Morningglory (morningglory; Preemergence, Rate 125 g/ha) | Morningglory plant response rating (morningglory; [4]) | Morningglory plant response rating (morningglory; [5]) | Morningglory plant response rating (morningglory; [6]) | Morningglory plant response rating (morningglory; [7]) | Redroot pigweed plant response rating (pigweed; [8]) | Plant response rating, Redroot pigweed (pigweed; Preemergence, Rate 62 g/ha) | Plant response rating, Redroot pigweed (pigweed; Preemergence, Rate 125 g/ha) | Redroot pigweed plant response rating (pigweed; [4]) | Redroot pigweed plant response rating (pigweed; [5]) | Redroot pigweed plant response rating (pigweed; [6]) | Redroot pigweed plant response rating (pigweed; [7]) | Rape plant response rating (rape; [8]) | Plant response rating, Rape (rape; Preemergence, Rate 62 g/ha) | Plant response rating, Rape (rape; Preemergence, Rate 125 g/ha) | Rape plant response rating (rape; [4]) | Rape plant response rating (rape; [5]) | Rape plant response rating (rape; [6]) | Rape plant response rating (rape; [7]) | Sugarbeets plant response rating (sugar beet; [8]) | Plant response rating, Sugarbeets (sugar beet; Preemergence, Rate 62 g/ha) | Plant response rating, Sugarbeets (sugar beet; Preemergence, Rate 125 g/ha) | Sugarbeets plant response rating (sugar beet; [4]) | Sugarbeets plant response rating (sugar beet; [5]) | Sugarbeets plant response rating (sugar beet; [6]) | Sugarbeets plant response rating (sugar beet; [7]) | Wheat plant response rating (wheat; [8]) | Plant response rating, Wheat (wheat; Preemergence, Rate 62 g/ha) | Plant response rating, Wheat (wheat; Preemergence, Rate 125 g/ha) | Wheat plant response rating (wheat; [4]) | Wheat plant response rating (wheat; [5]) | Wheat plant response rating (wheat; [6]) | Wheat plant response rating (wheat; [7]) | Wild oats plant response rating (wild oat; [8]) | Plant response rating, Wild oats (wild oat; Preemergence, Rate 62 g/ha) | Plant response rating, Wild oats (wild oat; Preemergence, Rate 125 g/ha) | Wild oats plant response rating (wild oat; [4]) | Wild oats plant response rating (wild oat; [6]) | Wild oats plant response rating (wild oat; [7]) | Nutsedge plant response rating (purple nutsedge; [8]) | Plant response rating, Nutsedge (purple nutsedge; Preemergence, Rate 62 g/ha) | Plant response rating, Nutsedge (purple nutsedge; Preemergence, Rate 125 g/ha) | Nutsedge plant response rating (purple nutsedge; [4]) | Nutsedge plant response rating (purple nutsedge; [5]) | Nutsedge plant response rating (purple nutsedge; [6]) | Nutsedge plant response rating (purple nutsedge; [7]) | Plant response rating, Rice (0 to 10 scale, 0 is no effect, 10 is complete control) (rice; [9]) | Rice plant response rating (0 to 10 scale, 0 is no effect, 10 is complete control) (rice; [10]) | Rice plant response rating (rice; [11]) | Rice plant response rating (rice; [12]) | Plant response rating, S. Flatsedge (0 to 10 scale, 0 is no effect, 10 is complete control) (smallflower flatsedge; [9]) | S. Flatsedge plant response rating (0 to 10 scale, 0 is no effect, 10 is complete control) (smallflower flatsedge; [10]) | S. Flatsedge plant response rating (smallflower flatsedge; [11]) | S. Flatsedge plant response rating (smallflower flatsedge; [12]) | Plant response rating, Ducksalad (0 to 10 scale, 0 is no effect, 10 is complete control) (duck salad; [9]) | Ducksalad plant response rating (0 to 10 scale, 0 is no effect, 10 is complete control) (duck salad; [10]) | Ducksalad plant response rating (duck salad; [11]) | Ducksalad plant response rating (duck salad; [12]) | Plant response rating, Barnyardgrass (0 to 10 scale, 0 is no effect, 10 is complete control) (bamyardgrass; [9]) | Barnyardgrass plant response rating (0 to 10 scale, 0 is no effect, 10 is complete control) (bamyardgrass; [10]) | Barnyardgrass plant response rating (bamyardgrass; [11]) | Barnyardgrass plant response rating (bamyardgrass; [12])
8: Crabgrass plant response rating (crabgrass; [4])
1: Plant response rating, Crabgrass (crabgrass; [2])
9: Crabgrass plant response rating (crabgrass; [5])
4: B. signalgrass plant response rating (surinam grass; [4])
6: B. signalgrass plant response rating (surinam grass; [5])
3: Giant foxtail plant response rating (giant foxtail; [5]) | Wild oats plant response rating (wild oat; [5])
7: Plant response rating, Crabgrass (crabgrass; [3])
